This note sets out measurements from patent publication US20210100788A1, “PALONOSETRON FORMULATIONS AND USES THEREOF” (LUXENA PHARMACEUTICALS, INC., priority 2014, published 2021).

The series in a line: Particle size distribution of jet milled palonosetron fine powder by HELOS Particle Size Analyzer. The series is classed as physicochemical. On the procedure: Palonosetron HCl was milled with a 2-in pancake Jet Mill and flexible containment. The process air was nitrogen. The jet milling was conducted at Catalent Micron Technologies, Malvern, Pa., USA.
The particle size distribution of the palonosetron fine powder, prepared by jet milling, was measured by HELOS Particle Size Analyzer (Sympatec GmbH, Germany) at Micron Technologies, Inc., Malvern, Pa., USA.
The Particle Size Distribution parameters are: • D10: 0.68 μm • D50: 1.39 μm • D90: 2.89 μm • D95: 3.68 μm • D99.5: 6.92 μm • Cumulative % <9 μm: 100%

Where a name gives a salt, the structure may show the parent alone.

For the compound `O=C1c2cccc3c2[C@H](CCC3)CN1[C@@H]1CN2CCC1CC2` [Jet Milled Palonosetron Fine Powder, Palonosetron HCl], the “Cumulative % <9 μm” value was determined as 100%, the D10 came to 0.68 μm, the D50 came to 1.39 μm and the D90 is reported as 2.89 μm. This compound also showed a D95 of 3.68 μm and a D99.5 of 6.92 μm.
